Measured values as given in paper PMC2633461, “Porcine sclera as a model of human sclera for in vitro transport experiments: histology, SEM, and comparative permeability” (Molecular Vision, 2009).
Where two headings read alike, the source gives them in different places.

Legend:
[1] = cited from earlier work
[2] = Procedure: Human corneal-scleral rims, which were discarded following harvesting of the corneal button (Regional Cornea Bank, Bologna, Italy), were frozen in liquid nitrogen and used within 15 days of explantation.
(§1) Permeation experiments were performed in Franz-type diffusion cells with an area of 0.2 cm^2 for human sclera and 0.6 cm^2 for porcine sclera.
(§2) To reduce edge damage, a thin layer of silicone lubricant was applied to the glass surface, and the minimum force necessary to keep the cell sealed was applied.
(§3) The receptor compartment contained 4 ml of 25 mM HEPES buffer (pH 7.4) added with 0.9% NaCl, kept at 37 °C, and magnetically stirred. […] At predetermined time intervals, the receptor solution was sampled for the determination of drug permeated.
(§4) The transscleral flux, i.e., the amount of drug that crosses 1 cm^2 of sclera in 1 h (J, µg/cm^2h) was calculated as the slope of the regression line at the steady-state while the lag time was the intercept of the regression line on the x-axis. The permeability coefficient (P, cm/s) was calculated as J/Cv where Cv represents the concentration of the donor solution.
(§5) Experiments performed with human sclera were replicated three to four times while those performed on porcine sclera were replicated five to seven times. All the experiments were performed using previously frozen tissues, and acetaminophen permeability was tested also through fresh pig sclera.
(§6) Acetaminophen and insulin were analyzed by HPLC with a Perkin-Elmer instrument (Norwalk, CT), which is made of an isocratic pump LC250 an UV detector LC290, and the Perkin Elmer Turbochrom Workstation software.
(§7) Acetaminophen was analyzed using a C18 Novapak® column (150×3.9 mm; Waters, Milford, MA) and a mobile phase composed of 92% (v/v) 10 mM sodium acetate pH 4 and 8% (v/v) acetonitrile, which was pumped at 1 ml/min. The detector was set at 254 nm.
(§8) Insulin was analyzed using a C18 Symmetry300® column (250×4.6 mm; Waters) at 40 °C and a mobile phase composed of 73% (v/v) aqueous phase and 27% (v/v) acetonitrile, which was pumped at 1 ml/min. The aqueous phase contained anhydrous sodium sulfate 28.4 g/l and phosphoric acid 2.7 ml/l and was adjusted at pH 2.3 with ethanolamine. The detector was set at 214 nm.
(§9) The excitation and emission λ were 490 and 520 nm, respectively.

[3] = remark: listed apart in the source
Procedure: Porcine globes were obtained from pigs (Large White, Landrance, Duroc; 10–11 months) that ranged in weight 145–190 kg and came from a local slaughterhouse. Porcine eyes were either used within 24 h of explantation or frozen at −80 °C until use. After thawing, the adherent muscle tissue was removed from the eye bulb, and the anterior segment of the eye was circumferentially cut behind the limbus. The eye was then cut into two halves, the vitreous was removed, and the anterior sclera was used for permeation experiments after the removal of the underling tissues using a cotton swab. The frozen tissues were used within three months of explantation.
as §1, §2, §3, §4, §5, §6, §7, §8, §9

[4] = cited from earlier work; remark: listed apart in the source
Excerpt: Regardless of the nature of this interaction, we have estimated that the affinity of insulin for the sclera was the same for porcine and human tissues. […] These values (not statistically different between them, p=0.176) indicate a similar behavior of the two tissues toward insulin and also confirm that insulin has an effective affinity for the sclera. In fact, even if the absolute value of the par ...

[5] = Affinity of insulin for scleral tissue: partition coefficient, human sclera / aqueous solution; format: in vitro ADME; details: insulin about 100 µg/ml in HEPES pH 7.4 with EDTA and lysine, 0.4 ml on 50-100 mg tissue, 3 h, room temperature, HPLC, mean±SEM, n at least 6
Procedure: (§10) Affinity of insulin for scleral tissue was estimated by measuring its partition coefficient between human or porcine sclera and an aqueous solution at pH 7.4. Insulin was dissolved in the aqueous vehicle that was used as donor for the permeation experiments at a concentration of about 100 µg/ml. This solution (0.4 ml) was added to a previously weighed amount of human or porcine sclera (50–100 mg) in a 2.0 ml vial. The insulin solution and the scleral tissues were incubated at room temperature for 3 h. The solution was then filtered (regenerated cellulose, 0.45 µm pore size) and analyzed by HPLC for the determination of the final insulin concentration in the water phase [Wf]. The insulin concentration [S] in the sclera after the incubation period was calculated as:
(§11) [S]=[Wi] x VW - [Wf] x VW/VS
(§12) where [Wi] is the initial concentration of insulin in the aqueous phase, [Wf] is the concentration of insulin in the aqueous phase after the incubation period, VW is the volume of the aqueous phase (0.4 ml), and VS is the volume of the sclera, which was estimated by its weight and by considering the scleral density to be equal to 1 g/ml.
(§13) The partition coefficient (Ks/w) was then calculated as: […]
(§14) Each experiment was replicated at least six times.

[6] = Affinity of insulin for scleral tissue: partition coefficient, porcine sclera / aqueous solution; format: in vitro ADME, pig; details: insulin about 100 µg/ml in HEPES pH 7.4 with EDTA and lysine, 0.4 ml on 50-100 mg tissue, 3 h, room temperature, HPLC, mean±SEM, n at least 6
Procedure: as §10, §11, §12, §13, §14

[7] = no reference given; cited from earlier work
Procedure: The permeability was evaluated using three model compounds. […] Insulin has been chosen as a model protein. It has a molecular weight of 5,734 Da, a molecular radius of the monomeric form of 1.13 nm or 2.0 nm, and an isoelectric point of about 5.4. […] Permeation experiment ...

[8] = cited from earlier work; remark: listed apart in the source
[9] = cited from earlier work; remark: listed apart in the source
[10] = neutral molecules of different lipophilicity, rhodamine 6G electrically charged at the pH of the experiment

Compound: CC(=O)Nc1ccc(O)cc1 [Acetaminophen, acetaminophen]
- Molecular radius [1]: 0.36 nm
- Flux through human sclera relative to pig sclera [2]: 2 times
- DK (diffusion coefficient x partition coefficient) ([2]; SEM): 2.05±0.18 cm^2/s x10^−6
- Lag-time ([2]; pH 7.4): no lag time was detectable
- P (permeability coefficient) ([2]; pH 7.4): 34.9±3.0 cm/s x10^−6
- Permeability coefficient across human sclera ([2]; pH 7.4): 3.49 [±0.3] x10^-5 cm/s
- DK (diffusion coefficient x partition coefficient) ([3]; SEM): 1.95±0.26 cm^2/s x10^−6
- Effect of freezing on tissue permeability (fresh vs previously frozen porcine sclera) ([3]; pH 7.4): did not have any effect on tissue permeability
- P (permeability coefficient) ([3]; pH 7.4): 15.6±2.1 cm/s x10^−6
- Lag-time ([3]; pH 7.4, SEM): 35 ± 2 min

Compound: CCCC1O[C@@H]2C[C@H]3[C@@H]4CCC5=CC(=O)C=C[C@]5(C)[C@H]4[C@@H](O)C[C@]3(C)[C@]2(C(=O)CO)O1 (stereo partly shown) [budesonide]
- Partition coefficient sclera (literature) [4, 10]: 1.2

Compound: Cc1ccc(-c2cc(C(F)(F)F)nn2-c2ccc(S(N)(=O)=O)cc2)cc1 [celecoxib]
- Partition coefficient sclera (literature) [4, 10]: 1.4

Compound: OC[C@@H](O)[C@@H](O)[C@H](O)[C@H](O)CO [mannitol]
- Partition coefficient sclera (literature) [4, 10]: 0.005

Compound: CC/N=c1\cc2oc3cc(NCC)c(C)cc3c(-c3ccccc3C(=O)OCC)c-2cc1C [rhodamine 6G]
- Partition coefficient sclera (literature) [4, 10]: high affinity

Compound: OC[C@H]1O[C@@](CO)(O[C@H]2O[C@H](CO)[C@@H](O)[C@H](O)[C@H]2O)[C@@H](O)[C@@H]1O [sucrose]
- Partition coefficient sclera (literature) [4]: 0.6

Compound: Insulin from bovine pancreas [listing 1 of 2 here]
- Flux ([2]; human sclera, previously frozen, Franz-type cell 0.2 cm^2, donor 4.9 mg/ml acetaminophen, 1 mg/ml FD-150 or 1 mg/ml insulin in 25 mM HEPES pH 7.4, receptor HEPES pH 7.4 + 0.9% NaCl (0.3% BSA for insulin), 37 °C, slope at steady state, HPLC-UV (FD-150 fluorescence), mean±SEM, n = 3-4, SEM): 6.93±1.14 µg/cm^2h
- P (permeability coefficient) ([2]; human sclera, previously frozen, Franz-type cell 0.2 cm^2, donor pH 7.4 HEPES, 37 °C, P = J/Cv, mean±SEM, n = 3-4): 1.93±0.32 cm/s x10^−6
- Lag-time ([2]; human sclera, previously frozen, intercept of the regression line on the x-axis, donor pH 7.4, 37 °C, mean±SEM, n = 3-4, SEM): 71 ± 6 min
- DK (diffusion coefficient x partition coefficient) ([2]; human sclera, from P = DK/H with H = tissue thickness (0.59 mm), mean±SEM, SEM): 0.11±0.02 cm^2/s x10^−6
- Flux through human sclera relative to pig sclera ([2]; ratio human / pig sclera flux): 2 times
- Flux ([3]; porcine sclera, previously frozen, Franz-type cell 0.6 cm^2, donor 4.9 mg/ml acetaminophen, 1 mg/ml FD-150 or 1 mg/ml insulin in 25 mM HEPES pH 7.4, receptor HEPES pH 7.4 + 0.9% NaCl (0.3% BSA for insulin), 37 °C, slope at steady state, HPLC-UV (FD-150 fluorescence), mean±SEM, n = 5-7, SEM): 3.74±2.10 µg/cm^2h
- Lag-time ([3]; porcine sclera, previously frozen, intercept of the regression line on the x-axis, donor pH 7.4, 37 °C, mean±SEM, n = 5-7, SEM): 198 ± 23 min
- DK (diffusion coefficient x partition coefficient) ([3]; porcine sclera, from P = DK/H with H = tissue thickness (1.25 mm), mean±SEM, SEM): 0.11±0.05 cm^2/s x10^−6
- Partition coefficient (Ks/w) between sclera and donor solution [5]: 10.3±1.2
- Partition coefficient (Ks/w) between sclera and donor solution [6]: 7.0±1.1
- isoelectric point [7]: about 5.4

Compound: Insulin from bovine pancreas [listing 2 of 2 here]
- Molecular radius of the monomeric form [8]: 1.13 nm
- Molecular radius (dimers/hexamers in solution) [9]: 2.5 nm
